Results published in patent publication US5616715A, “Dihydropyridine-3, 5-dicarboxylic acid ester derivatives” (Yamanouchi Pharmaceutical Co., Ltd., priority 1984, dated 1997).
Counter-ions that a name gives are not always drawn.

Key:
coronary artery = assay: Coronary Vasodilating Effect in Anesthetized Dogs (direct intracoronary administration); assay type: in vivo; settings: 1 μg directly into coronary artery; for Overall increase in coronary blood flow at 1 μg: area under the percent increase in coronary blood flow
Method: (1) Coronary Vasodilating Effect in Anesthetized Dogs
In open-chest dogs anesthetized with 30 mg/kg i.v. of pentobarbital sodium, arterial blood from the carotid artery was led to circumflex branch of the left coronary artery by a extracorporeal loop. A servocontrolled pure (model 1215D, Harvard Apparatus) was incorporated in the circuit to maintain a constant perfusion pressure of 120 mmHg by means of a pump controller (SCS-22, Data Graph Co., Tokuya Tukada et al., Folia Pharmacol. Japon, 74, 59p, 1978). An electromagnetic flow probe of extracorporeal type (MF-25, Nihon Koden) was also inserted in the circuit to record coronary blood flow. A dose of 1 μg of the compound was administered directly into the coronary artery and then coronary blood flow was monitored until the blood flow returned to the pretreatment value. And then, the area under the percent increase in coronary blood flow after intracoronary injection of 1 μg of the compound was calculated and used as an index of the overall increase in coronary blood flow.

[1] = Hypotensive Effect in Anesthetized Rats; assay type: in vivo; settings: for ED (30 mmHg): Rattus norvegicus, iv, urethane-anesthetized rats, dose required to lower mean blood pressure by 30 mmHg
Method: (2) Hypotensive Effect in Anesthetized Rats
Blood pressure was measured in urethane-anesthetized rats. The compound was intravenously administered in an increasing dose manner at an interval of 20 minutes. The doses of the compounds required to lower mean blood pressure by 30 mmHg (ED 30 mmHg) was calculated from the dose-response curves and summarized in Table 2.

Acute Toxicity in Mice = settings: mouse, in vivo; oral, six weeks old male ICR mice, suspended in 0.5% methylcellulose; Litchfield & Wilcoxon
Method: (3) Acute Toxicity in Mice
Six weeks old and male ICR mice weighing 27 to 29 g were used. The compound was suspended in 0.5% methylcellulose solution and administered orally to mice. The LD50 values of the compounds were calculated by the method of Litchfield & Wilcoxon (Journal of Pharmacol. & Exp. Therap., 96, 99-113, 1949) and summarized in Table 3.

[2] = U.S. Pat. No. 4,220,649; U. K. Patent No. 2,014,134; cited from earlier work

SMILES	Duration of the action (coronary artery) [min]	Overall increase in coronary blood flow at 1 μg (coronary artery)	ED (30 mmHg) [1] [mg/kg]	hypotensive activity, potency ratio to diastereoisomer B hydrochloride ([1]; anesthetized rats, i.v.)	LD50 (Acute Toxicity in Mice) [mg/kg]	duration of the vasodilating and hypotensive effect [2]	vasodilating activity and hypotensive activity [2]
COC(=O)C1=C(C)NC(C)=C(C(=O)OC2CCN(Cc3ccccc3)C2)C1c1cccc([N+](=O)[O-])c1 (single isomer, unassigned) [Diastereoisomer A (dl form) hydrochloride, 2,6-dimethyl-4-(3-nitro-phenyl)-1,4-dihydropyridine-3,5-dicarboxylic acid 3-(1-benzylpyrrolidin-3-yl)ester 5-methyl ester]	60	1816 ± 377 %, min.	0.002	about 70 times	295	–	–
COC(=O)C1=C(C)NC(C)=C(C(=O)OC2CCN(Cc3ccccc3)C2)C1c1cccc([N+](=O)[O-])c1 (stereo not drawn) [YM-09730, 2,6-dimethyl-4-(3-nitropheny)-1,4-dihydropyridine-3,5-dicarboxylic acid 3-(1-benzylpyrrolidin-3-yl)ester 5-methyl ester]	–	–	–	–	–	prolonged effect	has a vasodilating activity and a hypotensive activity
COC(=O)C1=C(C)NC(C)=C(C(=O)O[C@H]2CCN(Cc3ccccc3)C2)C1c1cccc([N+](=O)[O-])c1 (single isomer, unassigned) [Diastereoisomer A (d form) hydrochloride]	120	4559 ± 894 %, min.	–	–	190	–	–
COC(=O)C1=C(C)NC(C)=C(C(=O)OC2CCN(Cc3ccccc3)C2)C1c1cccc([N+](=O)[O-])c1 (racemic) [Diastereoisomer B (dl form) hydrochloride]	5	120 ± 28 %, min.	0.14	–	–	–	–
COC(=O)C1=C(C)NC(C)=C(C(=O)OC2CCN(Cc3ccccc3)C2)C1c1cccc([N+](=O)[O-])c1 (racemic) [Equivalent mixture of the hydrochlorides of diastereoisomers]	10	129 ± 47 %, min.	–	–	–	–	–
